Experiments:
Erlich’s carcinoma = assay: Antitumorous effectiveness, Erlich's carcinoma tumour mass; conditions: intraperitoneally; proposed drug 300 mg./kg. and prototype 300 mg./kg. on days 1 and 3 after transplantation; Adriamycin 600 μg on day 1; control 540
Lympho-sarcoma = assay: Antitumorous effectiveness, lympho-sarcoma tumour mass; conditions: intraperitoneally; proposed drug 30mg./kg. and prototype 300 mg./kg. on days 1, 2, 3 after transplantation; Adriamycin 600 μg./kg. on days 1 and 3; control 1124
[1] = system: Herpes simplex - 1 (MS strain); assay: Herpetic encephalitis, mortality; type: in vivo; conditions: 100 LD 50; 7 days after infection; intraperitoneally; AraA 20 mg./kg. every day; prototype 400 mg./kg. and proposed drug 25 mg./kg. 4 h before and 24 h after infection; control 100%
Semlika forest virus = Semlika forest virus infection, mortality; type: in vivo; conditions: 30 LD 50; 12 days after infection; intraperitoneally; Remantadin 20 mg./kg 4 h and 24 h after infection; proposed drug 10 mg./kg 4 h before and 24 h after infection; control 80%
[2] = system: Venezuelan equine encephalitis virus (SPF strain); type: in vivo; conditions: intraperitoneally, Poly (G) 0.1 g./kg. and prototype 200 mg./kg. at infection and 24 h after, proposed drug 20 mg./kg 4 h before and 24 h after infection
[3] = in vivo
[4] = system: Herpes simplex-2 (Ela 5699 strain); assay: Rabbit keratitis, severity of clinical symptoms; conditions: daily instillation: megosin 3% ointment, prototype 5% ointment, proposed drug 2.1% suspension; for Index of severity of clinical symptoms on day 5 following infection: control 14; for Index of severity of clinical symptoms on day 7 following infection: control 17; for Index of severity of clinical symptoms on day 9 following infection: control 13; for Index of severity of clinical symptoms on day 14 following infection: control 2
leukosis L 1210 = assay: Treatment of developing leukosis L 1210; conditions: orally on days 1, 2, 3 after transplantation; proposed drug 30 mg./kg., prototype 400 mg./kg.; control 96

Compound	Indices of efficacy (Mean tumour mass (mg.)) (Erlich’s carcinoma) [mg]	Indices of efficacy (Mean tumour mass (mg.)) (Lympho-sarcoma) [mg]	Indices of efficacy, % mortality [1]	Indices of efficacy, % mortality (Semlika forest virus)	Degree of suppression of viral reproduction in the brain 48 hours after infection, expressed as a percentage relative to the control [2] [%]	toxicity (therapeutic index) [3]	Index of severity of clinical symptoms on day 5 following infection [4]	Index of severity of clinical symptoms on day 7 following infection [4]	Index of severity of clinical symptoms on day 9 following infection [4]	Index of severity of clinical symptoms on day 14 following infection [4]	Percentage of blastular cells in peripheral blood (leukosis L 1210) [%]
COc1cccc2c1C(=O)c1c(O)c3c(c(O)c1C2=O)C[C@@](O)(C(=O)CO)C[C@@H]3O[C@H]1C[C@H](N)[C@H](O)[C@H](C)O1 [Adriamycin]	100	622	–	–	–	–	–	–	–	–	–
Nc1ncnc2c1ncn2[C@@H]1O[C@H](CO)[C@@H](O)[C@@H]1O [AraA, adenin - arabinosid]	–	–	42%, 7 days after infection	–	–	–	–	–	–	–	–
CC(N)C12CC3CC(CC(C3)C1)C2 (stereo not drawn) [Remantadin]	–	–	–	20%, 12 days after infection	–	–	–	–	–	–	–
CN(C)CCOc1ccc2cc3cc([N+](=O)[O-])c(OCCN(C)C)c(Cl)c3nc2c1Cl [The prototype, 3.6 - bis(2-dimethylaminetoxy)-4.5-dichlorine-2-nitroacridine]	200	820	22%	–	74	10-15	10	14	8	1	40
ether of 10 - methylencarboxylat-9-acridone [The proposed drug]	74	534	5%	0%	98	–	5	3	1	0	18

— EP0820772A1, “IMMUNOMODULATING MEDICINAL AGENT” (Travkin, Oleg Viktorovich, priority 1995, dated 1996)
